This assay has as its system P388 leukemia ip, CD2F1 mice, survival T/C. Kind of assay: NCI In Vivo Anticancer Drug Screen. Data for tumor model P388 Leukemia (intraperitoneal) in CD2F1 (CDF1) mice. The conditions noted are these: endpoint: median survival time, higher = longer survival. In a few lines:
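Mice carrying the transplanted tumor received test compound or vehicle. Survival was recorded in each group, and the value is the treated-group measurement divided by that of the vehicle-treated control group.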

Setting [1] is: dose: 25.0 mg/kg/injection, schedule: Q01DX009 (ip), vehicle: saline.
Setting [2] is: dose: 100.0 mg/kg/injection, schedule: Q04DX003 (ip), vehicle: saline.
Setting [3] is: dose: 50.0 mg/kg/injection, schedule: Q01DX009 (ip), vehicle: saline with Tween-80.
Setting [4] is: dose: 100.0 mg/kg/injection, schedule: Q01DX009 (ip), vehicle: saline.
[5] abbreviates: dose: 200.0 mg/kg/injection, schedule: Q01DX009 (ip), vehicle: saline.
The mark [6] stands for this setting: dose: 200.0 mg/kg/injection, schedule: Q04DX003 (ip), vehicle: saline.
The mark [7] stands for this setting: dose: 400.0 mg/kg/injection, schedule: Q04DX003 (ip), vehicle: saline.
The mark [8] stands for this setting: dose: 100.0 mg/kg/injection, schedule: Q01DX001 (ip), vehicle: Klucel (hydroxypropylcellulose) (HPC).
The mark [9] stands for this setting: dose: 200.0 mg/kg/injection, schedule: Q01DX001 (ip), vehicle: Klucel (hydroxypropylcellulose) (HPC).
[10] abbreviates: dose: 100.0 mg/kg/injection, schedule: Q01DX009 (ip), vehicle: saline with Tween-80.
Setting [11] is: dose: 12.5 mg/kg/injection, schedule: Q01DX009 (ip), vehicle: saline.
Setting [12] is: dose: 50.0 mg/kg/injection, schedule: Q01DX005 (ip), vehicle: Klucel (hydroxypropylcellulose) (HPC).
Setting [13] is: dose: 100.0 mg/kg/injection, schedule: Q01DX005 (ip), vehicle: Klucel (hydroxypropylcellulose) (HPC).
The mark [14] stands for this setting: dose: 200.0 mg/kg/injection, schedule: Q01DX005 (ip), vehicle: Klucel (hydroxypropylcellulose) (HPC).
The mark [15] stands for this setting: dose: 50.0 mg/kg/injection, schedule: Q01DX009 (ip), vehicle: saline.
Where [16] appears, read: dose: 120.0 mg/kg/injection, schedule: Q01DX005 (ip), vehicle: saline with Tween-80.
The mark [17] stands for this setting: dose: 240.0 mg/kg/injection, schedule: Q01DX005 (ip), vehicle: saline with Tween-80.
Setting [18] is: dose: 60.0 mg/kg/injection, schedule: Q01DX005 (ip), vehicle: Klucel (hydroxypropylcellulose) (HPC).
Where [19] appears, read: dose: 120.0 mg/kg/injection, schedule: Q01DX005 (ip), vehicle: Klucel (hydroxypropylcellulose) (HPC).
Setting [20] is: dose: 240.0 mg/kg/injection, schedule: Q01DX005 (ip), vehicle: Klucel (hydroxypropylcellulose) (HPC).

Several values for one entry are separate records, joined by “and”; a condition that tells them apart may be missing. Equal entries are not always repeated. Inconclusive results and toxic doses are left out.

Consider `CN(C)CCOCN1COCC1(C)C`, for which the T/C under setting [1] was 123 % of control.
Turning to `CCN(CC)CCCNc1cnc2ccc(OC)cc2n1`, the T/C by setting is: (dose: 25.0 mg/kg/injection, schedule: Q04DX003 (ip), vehicle: saline) 94 % of control; (dose: 50.0 mg/kg/injection, schedule: Q04DX003 (ip), vehicle: saline) 91 % of control; under setting [2], 103 % of control.
Regarding `Nc1ncnc2c1cnn2C1OC(CO)C(O)C1O` (stereo not drawn), the T/C reads like this: (dose: 16.5 mg/kg/injection, schedule: Q01DX009 (ip), vehicle: saline with Tween-80) 152 % of control; (dose: 25.0 mg/kg/injection, schedule: Q01DX009 (ip), vehicle: saline with Tween-80) 154 % of control; (dose: 37.5 mg/kg/injection, schedule: Q01DX009 (ip), vehicle: saline with Tween-80) 124 % of control.
Consider `CCOC(=O)c1ccc2c(=O)[nH]nc(CO)c2c1`, for which the T/C by setting is: (dose: 50.0 mg/kg/injection, schedule: Q01DX005 (ip), vehicle: saline with Tween-80) 104 % of control; (dose: 100.0 mg/kg/injection, schedule: Q01DX005 (ip), vehicle: saline with Tween-80) 102 % of control; (dose: 200.0 mg/kg/injection, schedule: Q01DX005 (ip), vehicle: saline with Tween-80) 96 % of control.
Consider `COc1cc(C=NC2CCCCC2)cc(OC)c1OC`, for which the T/C (dose: 100.0 mg/kg/injection, schedule: Q01DX001 (ip), vehicle: saline) is 104 % of control; the T/C (dose: 200.0 mg/kg/injection, schedule: Q01DX001 (ip), vehicle: saline) is 101 % of control; the T/C (dose: 400.0 mg/kg/injection, schedule: Q01DX001 (ip), vehicle: saline) is 99 % of control.
For `CCC1CN2CCc3cc(OC)c(OC)cc3C2CC1C#N` (stereo not drawn), under setting [3], the T/C is 93 % of control.
Regarding `CC(=O)NCSCC(N)C(=O)O` (stereo not drawn), the T/C was 104 % of control under setting [4]; 95 % of control under setting [2]; 118 % of control under setting [5]; 113 % of control under setting [6]; 90 % of control (dose: 400.0 mg/kg/injection, schedule: Q01DX009 (ip), vehicle: saline); 90 % of control under setting [7].
Turning to `O=C(NCCSCCSCCSCCNC(=O)Oc1ccccc1)Oc1ccccc1`, the T/C is, setting by setting: under setting [8], 92 % of control; under setting [9], 91 % of control.
For the molecule `CC(=O)c1cc(C)[nH]c1C`, the T/C is 103 % of control (dose: 37.5 mg/kg/injection, schedule: Q01DX009 (ip), vehicle: Klucel (hydroxypropylcellulose) (HPC)); 100 % of control under setting [3]; 100 % of control (dose: 50.0 mg/kg/injection, schedule: Q04DX003 (ip), vehicle: saline with Tween-80); 103 % of control (dose: 75.0 mg/kg/injection, schedule: Q01DX009 (ip), vehicle: Klucel (hydroxypropylcellulose) (HPC)); 113 % of control under setting [10]; 109 % of control (dose: 100.0 mg/kg/injection, schedule: Q04DX003 (ip), vehicle: saline with Tween-80). Also, the T/C is 103 % of control (dose: 150.0 mg/kg/injection, schedule: Q01DX009 (ip), vehicle: Klucel (hydroxypropylcellulose) (HPC)); 105 % of control (dose: 150.0 mg/kg/injection, schedule: Q01DX009 (ip), vehicle: saline with Tween-80); 113 % of control (dose: 200.0 mg/kg/injection, schedule: Q01DX009 (ip), vehicle: saline with Tween-80); 109 % of control (dose: 200.0 mg/kg/injection, schedule: Q04DX003 (ip), vehicle: saline with Tween-80).
With `Cc1cn(C2CC3[O][Sn]([c]4ccccc4)([c]4ccccc4)[O]CC3O2)c(=O)[nH]c1=O` (stereo not drawn), the T/C runs as follows: under setting [11], 124 % of control; under setting [1], 100 % of control.
`O=c1oc2c(cc1-c1ccccc1)CCc1ccccc1-2`: the T/C under setting [12] was 102 % of control, the T/C under setting [13] is 100 % of control and the T/C under setting [14] was 102 % of control.
As for `CC1C2C=CC1C=C2` (stereo not drawn), the T/C runs as follows: under setting [15], 98 % of control; under setting [4], 91 % of control; under setting [5], 98 % of control.
For `CNC(=S)SCc1ccccc1`, the T/C is, setting by setting: under setting [3], 99 % of control; under setting [10], 110 % of control.
As for `N#Cc1c(N)nc2c(c(-c3ccc(Cl)cc3)nn2-c2ccccc2)c1C#N`, the T/C was 97 % of control (dose: 7.5 mg/kg/injection, schedule: Q01DX005 (ip), vehicle: saline with Tween-80); 86 % of control and 96 % of control (dose: 15.0 mg/kg/injection, schedule: Q01DX005 (ip), vehicle: saline with Tween-80); 89 % of control and 90 % of control (dose: 30.0 mg/kg/injection, schedule: Q01DX005 (ip), vehicle: saline with Tween-80); 86 % of control and 91 % of control under setting [16]; 93 % of control under setting [17].
In the case of `O=C(/N=C1\N=Nc2c(O)c(C3(c4nc5n(c4O)/C(=N/C(=O)Nc4ccc(Cl)cc4)N=N5)Cc4ccccc4C3=O)nn21)Nc1ccc(Cl)cc1` (stereo not drawn), the T/C was 101 % of control (dose: 60.0 mg/kg/injection, schedule: Q01DX005 (ip), vehicle: saline with Tween-80); 94 % of control under setting [16]; 94 % of control under setting [17].
On to `CC(=O)Oc1c(C)c(OC(C)=O)c2[nH]c(Cl)c(C=O)c2c1OC(C)=O`, for which the T/C is 108 % of control under setting [8] and 102 % of control under setting [9].
In the case of `NCCc1cc(O)c(O)cc1O`, the T/C reads like this: (dose: 6.25 mg/kg/injection, schedule: Q01DX009 (ip), vehicle: saline) 101 % of control and 105 % of control; under setting [11], 107 % of control and 97 % of control; under setting [1], 101 % of control and 109 % of control; under setting [15], 100 % of control and 111 % of control.
Regarding `O/N=C/C(=Nc1ccc(-c2ccc(N=C(/C=N/O)NO)cc2)cc1)NO`, the T/C under setting [18] was 103 % of control, the T/C under setting [19] is 102 % of control and the T/C under setting [20] was 97 % of control.
For the molecule `Cc1ccccc1C1NC(c2ccccc2C)C2CCCC1C2=O` (stereo not drawn), the T/C is 89 % of control under setting [2], 96 % of control under setting [6] and 93 % of control under setting [7].
With `C[C@]12CC[C@H]3[C@@H](C[C@H]4OC[C@@]35CC[C@H](O)C[C@]45Br)[C@@H]1CC[C@@H]2O`, the T/C under setting [12] was 97 % of control, the T/C under setting [13] was 97 % of control and the T/C under setting [14] was 96 % of control.
`O=CNc1cccc(NC=O)c1`: the T/C was 111 % of control (dose: 25.0 mg/kg/injection, schedule: Q01DX009 (ip), vehicle: distilled water + Tween-80); 100 % of control (dose: 50.0 mg/kg/injection, schedule: Q01DX009 (ip), vehicle: distilled water + Tween-80); 100 % of control (dose: 100.0 mg/kg/injection, schedule: Q01DX009 (ip), vehicle: distilled water + Tween-80); 100 % of control (dose: 200.0 mg/kg/injection, schedule: Q01DX009 (ip), vehicle: distilled water + Tween-80).
On to `CC(=O)OC1C2C3C2C2C1C32` (stereo not drawn), for which the T/C (dose: 100.0 mg/kg/injection, schedule: Q04DX002 (ip), vehicle: other) is 113 % of control; the T/C (dose: 200.0 mg/kg/injection, schedule: Q04DX002 (ip), vehicle: other) was 106 % of control; the T/C (dose: 400.0 mg/kg/injection, schedule: Q04DX002 (ip), vehicle: other) was 103 % of control.
Turning to `COC(OC)C(C(=O)c1ccc(OCc2ccccc2)cc1O)c1cc2c(cc1OCc1ccccc1)OCO2` (stereo not drawn), the T/C runs as follows: (dose: 100.0 mg/kg/injection, schedule: Q04DX003 (ip), vehicle: Klucel (hydroxypropylcellulose) (HPC)) 96 % of control; (dose: 200.0 mg/kg/injection, schedule: Q04DX003 (ip), vehicle: Klucel (hydroxypropylcellulose) (HPC)) 101 % of control; (dose: 400.0 mg/kg/injection, schedule: Q04DX003 (ip), vehicle: Klucel (hydroxypropylcellulose) (HPC)) 98 % of control.
Take `Oc1cc2c(cc1C(c1ccc(F)cc1)N1CCCC1)OCO2` (stereo not drawn): the T/C was 109 % of control under setting [18], 111 % of control under setting [19] and 111 % of control under setting [20].
